The values below come from the supplement of paper PMC11208160.
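Further: IS621 recombinase and bridge RNA in Escherichia coli cells.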

A short description of the data set: recombinant barcode read abundance after kanamycin selection (control-corrected) (log10(CPM+1)); higher = more efficient recombination; sequences stand for … in AGTGCAGAGAAAATCGGCCAGTTTTCTCTGCCTGCAGTCCGCATGCCGT…AGATTTATGCAGCGGACTGCCTTTCTCCCAAAGTGATAAACCGGACAGTATCATGGACCGGTTTTCCCGGTAATCCGTATTTGCAAGGTTGGTTTCACT; site = the 11-nt target. An outline of the steps: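 The screen was pooled in E. coli and paired targets with IS621 bridge RNA target-binding loops. Recombination efficiency is taken from barcode counts per million at recombinant junctions, averaged and adjusted against the control. Values, in the form log10(CPM+1), come from duplicate plating on chloramphenicol/ampicillin LB agar or on chloramphenicol/ampicillin/kanamycin with 0.1 mM IPTG.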
Consider “CGTACCTCTTGGGTTCTAACCTGTTGCTT (site CGTACCTCTTA)”, for which the “recombinant barcode read abundance (log10)” value worked out at 0.127. For “CGTACTACTTGGGTTCTAACCTGTTGCAC (site CGTACTACTGT)”, the “recombinant barcode read abundance (log10)” value was 0.0785. The figure for “CGTACTACTTGGGTTCTAACCTGTTGCAC (site GGTACTACTAT)” is 0.128; for “CGTCAACCTTGGGTTCTAACCTGTTGCCT (site CGTCAACCTAG)” it is 0.0446.

Turning to “CGTCAACCTTGGGTTCTAACCTGTTGCCT (site CGTCACCCTAG)”, the “recombinant barcode read abundance (log10)” value came out at 0.117. “CGTCAACCTTGGGTTCTAACCTGTTGCCT (site CGTCAGCCTAG)”: the “recombinant barcode read abundance (log10)” value worked out at 0.177. The figure for “CGTCAACCTTGGGTTCTAACCTGTTGCCT (site CGTCATCCTAG)” is 0.115; for “CGTCACACTTGGGTTCTAACCTGTTGCCT (site CGACACACTAG)” it is 0.013. The figure for “CGTCACACTTGGGTTCTAACCTGTTGCCT (site CGCCACACTAG)” is 0.107; for “CGTCACACTTGGGTTCTAACCTGTTGCCT (site CGGCACACTAG)” it is 0.052. The figure for “CGTCACACTTGGGTTCTAACCTGTTGCCT (site CGTCACACTAG)” is 0.013; for “CGTCCGACTTGGGTTCTAACCTGTTGCAT (site CGTACGACTAT)” it is 0.0562. In the case of “CGTCCGACTTGGGTTCTAACCTGTTGCAT (site CGTCCGACTAT)”, the “recombinant barcode read abundance (log10)” value stood at 0.113. In the case of “CGTCCGACTTGGGTTCTAACCTGTTGCAT (site CGTGCGACTAT)” it was 0.0838; in that of “CGTCCGACTTGGGTTCTAACCTGTTGCAT (site CGTTCGACTAT)”, 0; in that of “CGTCGGGCTTGGGTTCTAACCTGTTGCAG (site CATCGGGCTCT)”, 0.367. The figure for “CGTCGGGCTTGGGTTCTAACCTGTTGCAG (site CCTCGGGCTCT)” is 0.107; for “CGTCGGGCTTGGGTTCTAACCTGTTGCAG (site CGTCGGGCTCT)” it is 1.38; for “CGTCGGGCTTGGGTTCTAACCTGTTGCAG (site CTTCGGGCTCT)” it is 0.258. The figure for “CGTCTACCTTGGGTTCTAACCTGTTGCCT (site AGTCTACCTAG)” is 0.0669. With “CGTCTACCTTGGGTTCTAACCTGTTGCCT (site CGTCTACCTAG)”, the “recombinant barcode read abundance (log10)” value was 0.333. In the case of “CGTCTAGCTTGGGTTCTAACCTGTTGCCA (site CGTCTAGCTTG)” it was 0.0938.

For “CGTCTAGCTTGGGTTCTAACCTGTTGCCA (site CGTGGAGCTTG)”, the “recombinant barcode read abundance (log10)” value was determined as 0.0343. With “CGTCTGCCTTGGGTTCTAACCTGTTGCCT (site AGTCTGCCTAG)”, the “recombinant barcode read abundance (log10)” value came to 0.0222. In the case of “CGTCTGCCTTGGGTTCTAACCTGTTGCCT (site CGTCTGCCTAG)” it was 0.0327; in that of “CGTCTGCCTTGGGTTCTAACCTGTTGCCT (site GGTCTGCCTAG)”, 0.0804; in that of “CGTCTGCCTTGGGTTCTAACCTGTTGCCT (site TGTCTGCCTAG)”, 0.193. The figure for “CGTGACCCTTGGGTTCTAACCTGTTGCGG (site CGTGACCCTCC)” is 2.34; for “CGTGACCCTTGGGTTCTAACCTGTTGCGG (site GTGAGAACTTG)” it is 0.072. The figure for “CGTGCAGCTTGGGTTCTAACCTGTTGCCT (site CGAGCAGCTAG)” is 0.508. For “CGTGCAGCTTGGGTTCTAACCTGTTGCCT (site CGCGCAGCTAG)”, the “recombinant barcode read abundance (log10)” value came to 0.137. In the case of “CGTGCAGCTTGGGTTCTAACCTGTTGCCT (site CGGGCAGCTAG)” it was 0.0626; in that of “CGTGCAGCTTGGGTTCTAACCTGTTGCCT (site CGTGCAGCTAG)”, 0.323; in that of “CGTGCGCCTTGGGTTCTAACCTGTTGCCT (site AAACTAGCTCC)”, 0.0967.

On to “CGTGCGCCTTGGGTTCTAACCTGTTGCCT (site CGTGCGCCTAG)”, for which the “recombinant barcode read abundance (log10)” value was found to be 0.174.

As for “CGTGGTCCTTGGGTTCTAACCTGTTGCGT (site CGTGGTCCTAA)”, the “recombinant barcode read abundance (log10)” value was 0.615. The figure for “CGTGGTCCTTGGGTTCTAACCTGTTGCGT (site CGTGGTCCTAC)” is 2.26; for “CGTGGTCCTTGGGTTCTAACCTGTTGCGT (site CGTGGTCCTAG)” it is 0.224. Turning to “CGTGGTCCTTGGGTTCTAACCTGTTGCGT (site CGTGGTCCTAT)”, the “recombinant barcode read abundance (log10)” value worked out at 1.25. The figure for “CGTGGTCCTTGGGTTCTAACCTGTTGCTT (site CGTGGTCCTAA)” is 0.919; for “CGTGGTCCTTGGGTTCTAACCTGTTGCTT (site CGTGGTCCTAC)” it is 0.409.

For “CGTGGTCCTTGGGTTCTAACCTGTTGCTT (site CGTGGTCCTAG)”, the “recombinant barcode read abundance (log10)” value was 0.342. For “CGTGGTCCTTGGGTTCTAACCTGTTGCTT (site CGTGGTCCTAT)”, the “recombinant barcode read abundance (log10)” value worked out at 0.426. The figure for “CGTTCCACTTGGGTTCTAACCTGTTGCCT (site CGTTCAACTAG)” is 0.0139; for “CGTTCCACTTGGGTTCTAACCTGTTGCCT (site CGTTCCACTAG)” it is 0.0687. In the case of “CGTTCCACTTGGGTTCTAACCTGTTGCCT (site CGTTCGACTAG)” it was 0.279; in that of “CGTTCCACTTGGGTTCTAACCTGTTGCCT (site CGTTCTACTAG)”, 0; in that of “CTAAACCCTTGGGTTCTAACCTGTTGCGT (site CTAAACCCTAC)”, 2.85. Regarding “CTAAACCCTTGGGTTCTAACCTGTTGCGT (site CTACACCCTTC)”, the “recombinant barcode read abundance (log10)” value turned out to be 0.0729.

Consider “CTAAATCCTTGGGTTCTAACCTGTTGCCT (site ATAAATCCTAG)”, for which the “recombinant barcode read abundance (log10)” value is 0.111. As to “CTAAATCCTTGGGTTCTAACCTGTTGCCT (site CTAAATCCTAG)”, the “recombinant barcode read abundance (log10)” value amounted to 0.303.

For “CTAAATCCTTGGGTTCTAACCTGTTGCCT (site GTAAATCCTAG)”, the “recombinant barcode read abundance (log10)” value was 0.0932. The figure for “CTAAATCCTTGGGTTCTAACCTGTTGCCT (site TTAAATCCTAG)” is 0.0182.

On to “CTAACCGCTTGGGTTCTAACCTGTTGCCT (site CAAACCGCTAG)”, for which the “recombinant barcode read abundance (log10)” value is 0.471. Turning to “CTAACCGCTTGGGTTCTAACCTGTTGCCT (site CCAACCGCTAG)”, the “recombinant barcode read abundance (log10)” value stood at 0.266. In the case of “CTAACCGCTTGGGTTCTAACCTGTTGCCT (site CGAACCGCTAG)” it was 0.0568.

Regarding “CTAACCGCTTGGGTTCTAACCTGTTGCCT (site CTAACCGCTAG)”, the “recombinant barcode read abundance (log10)” value worked out at 1.67. Regarding “CTAACCTCTTGGGTTCTAACCTGTTGCTT (site CTAACCTCTAA)”, the “recombinant barcode read abundance (log10)” value turned out to be 0.505. The figure for “CTAACCTCTTGGGTTCTAACCTGTTGCTT (site CTAACCTCTCA)” is 0.149. The figure for “CTAACCTCTTGGGTTCTAACCTGTTGCTT (site CTAACCTCTGA)” is 0.178. In the case of “CTAACCTCTTGGGTTCTAACCTGTTGCTT (site CTAACCTCTTA)” it was 0; in that of “CTAAGAACTTGGGTTCTAACCTGTTGCAT (site CTAAGAACTAA)”, 0.15; in that of “CTAAGAACTTGGGTTCTAACCTGTTGCAT (site CTAAGAACTAC)”, 0.0166. As for “CTAAGAACTTGGGTTCTAACCTGTTGCAT (site CTAAGAACTAG)”, the “recombinant barcode read abundance (log10)” value was 0.188. In the case of “CTAAGAACTTGGGTTCTAACCTGTTGCAT (site CTAAGAACTAT)” it was 1.1; in that of “CTAAGAGCTTGGGTTCTAACCTGTTGCCA (site CTAAGAGCTTG)”, 0.483.

Take “CTAAGAGCTTGGGTTCTAACCTGTTGCCA (site CTAAGCGCTTG)”: the “recombinant barcode read abundance (log10)” value worked out at 0.109. The figure for “CTAAGAGCTTGGGTTCTAACCTGTTGCCA (site CTAAGGGCTTG)” is 0.0357. In the case of “CTAAGAGCTTGGGTTCTAACCTGTTGCCA (site CTAAGTGCTTG)” it was 0.116; in that of “CTAAGCACTTGGGTTCTAACCTGTTGCCG (site CTAAATACTCG)”, 0.849; in that of “CTAAGCACTTGGGTTCTAACCTGTTGCCG (site CTAAGCACTCG)”, 0.671. In the case of “CTAAGGACTTGGGTTCTAACCTGTTGCTT (site CTAAGGACTAA)” it was 0.0753. For “CTAAGGACTTGGGTTCTAACCTGTTGCTT (site CTAAGGGCTCA)”, the “recombinant barcode read abundance (log10)” value is 0.124.

Take “CTAAGGGCTTGGGTTCTAACCTGTTGCCA (site CTAAGAGCTTG)”: the “recombinant barcode read abundance (log10)” value was found to be 0.122. In the case of “CTAAGGGCTTGGGTTCTAACCTGTTGCCA (site CTAAGCGCTTG)” it was 0.0306; in that of “CTAAGGGCTTGGGTTCTAACCTGTTGCCA (site CTAAGGGCTTG)”, 0.591; in that of “CTAAGGGCTTGGGTTCTAACCTGTTGCCA (site CTAAGTGCTTG)”, 0.233.
